According to PubChem BioAssay AID248 (DTP/NCI, 2004):
Where “and” joins values, the source holds several entries; their conditions need not be identical. Identical values can stand only once. Toxic doses and inconclusive results are not listed. Rule as the data show it: active = T/C of 150% or more; inactive = T/C below 125%.

Test system: L1210 leukemia ip in BDF1 mice, survival T/C
Test: NCI In Vivo Anticancer Drug Screen. Data for tumor model L1210 Leukemia (intraperitoneal) in B6D2F1 (BDF1) mice
Details: endpoint: mean survival time, higher = longer survival
Summary of the method: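 Mice bearing the transplanted tumor received compound or vehicle. Survival of the treated group was divided by that of the vehicle-treated control group to give the ratio.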

[1] = dose: 100.0 mg/kg/injection, schedule: Q01DX001 (ip), vehicle: saline
[2] = dose: 200.0 mg/kg/injection, schedule: Q01DX001 (ip), vehicle: saline
[3] = dose: 400.0 mg/kg/injection, schedule: Q01DX001 (ip), vehicle: saline
[4] = dose: 100.0 mg/kg/injection, schedule: Q01DX001 (ip), vehicle: saline with Tween-80
[5] = dose: 75.0 mg/kg/injection, schedule: Q01DX001 (ip), vehicle: carboxymethylcellulose (CMC)
[6] = dose: 150.0 mg/kg/injection, schedule: Q01DX001 (ip), vehicle: carboxymethylcellulose (CMC)
[7] = dose: 300.0 mg/kg/injection, schedule: Q01DX001 (ip), vehicle: carboxymethylcellulose (CMC)
[8] = dose: 100.0 mg/kg/injection, schedule: Q01DX009 (ip), vehicle: Klucel (hydroxypropylcellulose) (HPC)
[9] = dose: 200.0 mg/kg/injection, schedule: Q01DX009 (ip), vehicle: Klucel (hydroxypropylcellulose) (HPC)
[10] = dose: 50.0 mg/kg/injection, schedule: Q01DX001 (ip), vehicle: saline with Tween-80

Measured: T/C

CCCCC(C)(O)CCC (stereo unspecified)
inactive: dose: 50.0 mg/kg/injection, schedule: Q01DX001 (ip), vehicle: carboxymethylcellulose (CMC) 104 % of control | dose: 100.0 mg/kg/injection, schedule: Q01DX001 (ip), vehicle: carboxymethylcellulose (CMC) 101 % of control | dose: 200.0 mg/kg/injection, schedule: Q01DX001 (ip), vehicle: carboxymethylcellulose (CMC) 98 % of control | dose: 400.0 mg/kg/injection, schedule: Q01DX001 (ip), vehicle: carboxymethylcellulose (CMC) 89 % of control

CSc1ncc(C(N)=O)c(N)n1
inactive: dose: 222.0 mg/kg/injection, schedule: Q01DX Z (ip), vehicle: saline 102 % of control | dose: 333.0 mg/kg/injection, schedule: Q01DX Z (ip), vehicle: saline 89 % of control | dose: 500.0 mg/kg/injection, schedule: Q01DX Z (ip), vehicle: saline 95 % of control

Nc1ccc(O)cc1
inactive: dose: 12.5 mg/kg/injection, schedule: Q04DX003 (ip), vehicle: saline 92 % of control | dose: 25.0 mg/kg/injection, schedule: Q04DX003 (ip), vehicle: saline 95 % of control | dose: 35.0 mg/kg/injection, schedule: Q01DX Z (ip), vehicle: acid diluted with saline 92 % of control | dose: 35.0 mg/kg/injection, schedule: Q01DX Z (ip), vehicle: other 97 % of control | dose: 40.0 mg/kg/injection, schedule: Q01DX Z (ip), vehicle: methylcellulose (MC) 113 % of control | dose: 53.0 mg/kg/injection, schedule: Q01DX010 (sc), vehicle: saline 94 % of control | dose: 53.0 mg/kg/injection, schedule: Q01DX Z (ip), vehicle: acid diluted with saline 104 % of control | dose: 53.0 mg/kg/injection, schedule: Q01DX Z (ip), vehicle: other 103 % of control | dose: 53.0 mg/kg/injection, schedule: Q01DX Z (ip), vehicle: saline 98 % of control | dose: 80.0 mg/kg/injection, schedule: Q01DX Z (ip), vehicle: acid diluted with saline 108 % of control | dose: 80.0 mg/kg/injection, schedule: Q01DX Z (ip), vehicle: other 101 % of control | dose: 80.0 mg/kg/injection, schedule: Q01DX Z (ip), vehicle: saline 114 % of control | dose: 120.0 mg/kg/injection, schedule: Q01DX010 (sc), vehicle: saline 98 % of control | dose: 120.0 mg/kg/injection, schedule: Q01DX Z (ip), vehicle: acid diluted with saline 115 % of control | dose: 120.0 mg/kg/injection, schedule: Q01DX Z (ip), vehicle: other 114 % of control | dose: 120.0 mg/kg/injection, schedule: Q01DX Z (ip), vehicle: saline 112 % of control | dose: 160.0 mg/kg/injection, schedule: Q01DX Z (oral), vehicle: methylcellulose (MC) 113 % of control | dose: 212.0 mg/kg/injection, schedule: Q01DX013 (oral), vehicle: saline 109 % of control | dose: 320.0 mg/kg/injection, schedule: Q01DX Z (ip), vehicle: methylcellulose (MC) 107 % of control | dose: 320.0 mg/kg/injection, schedule: Q01DX Z (oral), vehicle: methylcellulose (MC) 108 % of control

COC(=O)C(Nc1ccc([N+](=O)[O-])cc1[N+](=O)[O-])C(O)c1ccccc1 (stereo unspecified)
inactive: [1] 98 % of control | [2] 111 % of control | [3] 93 % of control

Cc1ccc(/C(=N\N=C(N)N)c2ccccc2)cc1
inactive: dose: 15.0 mg/kg/injection, schedule: Q01DX Z (ip), vehicle: saline 108 % of control | dose: 30.0 mg/kg/injection, schedule: Q01DX Z (ip), vehicle: saline 110 % of control | dose: 30.0 mg/kg/injection, schedule: Q01DX Z (oral), vehicle: other 105 % of control | dose: 60.0 mg/kg/injection, schedule: Q01DX Z (ip), vehicle: saline 109 % of control | dose: 60.0 mg/kg/injection, schedule: Q01DX Z (oral), vehicle: other 95 % of control

CN(N=Nc1ccc(C(=N)N)cc1)C1CCCCC1
inactive: dose: 9.5 mg/kg/injection, schedule: Q01DX001 (ip), vehicle: saline 95 % of control | dose: 19.0 mg/kg/injection, schedule: Q01DX001 (ip), vehicle: saline 98 % of control | dose: 38.0 mg/kg/injection, schedule: Q01DX001 (ip), vehicle: saline 95 % of control

O=S(=O)(O)C(Nc1ccccn1)c1ccccc1 (stereo unspecified)
inactive: [4] 104 % of control

O=C1/C(=C/c2ccncc2)CCCc2ccccc21
inactive: dose: 6.25 mg/kg/injection, schedule: Q04DX003 (ip), vehicle: Klucel (hydroxypropylcellulose) (HPC) 98 % of control | dose: 12.5 mg/kg/injection, schedule: Q04DX003 (ip), vehicle: Klucel (hydroxypropylcellulose) (HPC) 97 % of control | dose: 25.0 mg/kg/injection, schedule: Q04DX003 (ip), vehicle: Klucel (hydroxypropylcellulose) (HPC) 97 % of control | dose: 200.0 mg/kg/injection, schedule: Q04DX003 (ip), vehicle: carboxymethylcellulose (CMC) 100 % of control

Nc1nc2ncc(=O)[nH]c2c(=O)[nH]1
inactive: dose: 50.0 mg/kg/injection, schedule: Q01DX009 (ip), vehicle: saline 106 % of control | dose: 50.0 mg/kg/injection, schedule: Q04DX003 (ip), vehicle: saline 103 % of control | dose: 100.0 mg/kg/injection, schedule: Q01DX009 (ip), vehicle: saline 101 % of control | dose: 100.0 mg/kg/injection, schedule: Q04DX003 (ip), vehicle: saline 100 % of control | dose: 200.0 mg/kg/injection, schedule: Q01DX009 (ip), vehicle: saline 87 % of control | dose: 200.0 mg/kg/injection, schedule: Q04DX003 (ip), vehicle: saline 106 % of control | dose: 400.0 mg/kg/injection, schedule: Q04DX003 (ip), vehicle: saline 122 % of control

COc1ccc(C)cc1OC(CCC(C)C)C(C)=O (stereo unspecified)
inactive: [5] 93 % of control | [6] 96 % of control | [7] 90 % of control

CCNc1ccc([N+](=O)[O-])cn1
inactive: [8] 104 % of control | [9] 106 % of control

O=C(NC1CCCCC1)C(=S)NC1CCCCC1
inactive: [8] 93 % of control | [9] 101 % of control | dose: 400.0 mg/kg/injection, schedule: Q01DX009 (ip), vehicle: Klucel (hydroxypropylcellulose) (HPC) 98 % of control

CCCCC(=O)N/N=C/c1cccc(Br)c1
inactive: [1] 102 % of control | [2] 102 % of control | [3] 98 % of control

COc1ccc(NCNc2ccc(OC)cc2)cc1
inactive: dose: 50.0 mg/kg/injection, schedule: Q01DX009 (ip), vehicle: Klucel (hydroxypropylcellulose) (HPC) 94 % of control | [8] 98 % of control | dose: 100.0 mg/kg/injection, schedule: Q04DX003 (ip), vehicle: Klucel (hydroxypropylcellulose) (HPC) 103 % of control | dose: 200.0 mg/kg/injection, schedule: Q04DX003 (ip), vehicle: Klucel (hydroxypropylcellulose) (HPC) 103 % of control

CNc1cn(C2OC(CO)C(O)C2O)c(=O)[nH]c1=O (stereo unspecified)
inactive: dose: 100.0 mg/kg/injection, schedule: Q01DX005 (ip), vehicle: saline 96 % of control | dose: 200.0 mg/kg/injection, schedule: Q01DX005 (ip), vehicle: saline 96 % of control

Nc1ccc(CCCCOc2ccccc2)cc1
inactive: dose: 25.0 mg/kg/injection, schedule: Q01DX001 (ip), vehicle: saline with Tween-80 104 % of control | [10] 95 % of control | [4] 98 % of control and 106 % of control

O=C(N/N=C/c1ccc(Cl)cc1Cl)C(O)C(O)C(O)C(O)CO (stereo unspecified)
inactive: dose: 12.5 mg/kg/injection, schedule: Q04DX003 (ip), vehicle: saline with Tween-80 105 % of control | dose: 25.0 mg/kg/injection, schedule: Q04DX003 (ip), vehicle: saline with Tween-80 101 % of control | [10] 91 % of control | dose: 50.0 mg/kg/injection, schedule: Q01DX009 (ip), vehicle: saline with Tween-80 90 % of control | dose: 50.0 mg/kg/injection, schedule: Q04DX003 (ip), vehicle: saline with Tween-80 96 % of control and 92 % of control | [4] 104 % of control | dose: 100.0 mg/kg/injection, schedule: Q04DX002 (ip), vehicle: saline with Tween-80 92 % of control | dose: 200.0 mg/kg/injection, schedule: Q01DX001 (ip), vehicle: saline with Tween-80 90 % of control | dose: 200.0 mg/kg/injection, schedule: Q04DX002 (ip), vehicle: saline with Tween-80 86 % of control | dose: 400.0 mg/kg/injection, schedule: Q04DX002 (ip), vehicle: saline with Tween-80 97 % of control

Cn1c(=O)c2[nH]c(C3CCCCCC3)nc2n(C)c1=O
inactive: dose: 50.0 mg/kg/injection, schedule: Q01DX001 (ip), vehicle: saline 87 % of control | [1] 96 % of control | [2] 87 % of control

O=S(=O)(NCCBr)c1ccccc1
inactive: [5] 101 % of control | [6] 114 % of control | [7] 108 % of control
